Experimental findings from patent publication US11534443B2, “Quinazoline compounds, preparation method, use, and pharmaceutical composition thereof” (INSTITUTE OF MATERIA MEDICA, CHINESE ACADEMY OF MEDICAL …, priority 2016, dated 2022) are described below.

In general, IC50 refers to the concentration that gives 50% inhibition.

The test system of assay [1] is human lung cancer cell NCI-H460. Put plainly: Tumor cell viability by MTT assay. The format is cell-based. How it is done:
After 24 hours, 100 μL of fresh medium containing different concentrations of test compounds and the corresponding solvent control was added into each well to a final concentration of DMSO less than 0.2%. Six to nine concentration groups were set for each test compound, and three parallel wells were set for each group. The plate was incubated at 5% CO2, 37° C. for 96 hours. 20 μL of freshly prepared PBS solution containing 5 mg/mL MTT was added to each well. The supernatant was discarded after incubation for another 4 hours. 150 μL DMSO was added to each well to dissolve the MTT formazan precipitate. After being mixed by a micro-oscillator, the optical density (OD) was measured at the wavelength of 570 nm, and the tumor cells treated with DMSO were used as a control group.

The next assay deals with PI3Kα (Homo sapiens (Human), UniProt P42336). Put plainly: Biochemical evaluation of activity of PI3Kα (Kinase-Glo luminescence kinase assay). Conditions: 25 μM ATP, 50 μM PIP2, 1 h at room temperature. On the procedure: The potency of compounds in the present intention against PI3Kα was assessed by in vitro kinase assay. The kinase activity of PI3Kα was determined by detecting the level of ADP produced in the kinase reaction with luciferase-based luminescence detection.
The Kinase-Glo™ Kinase Assay Kit was purchased from Promega. All assays were performed at room temperature using white OptiPlate™-384 well plate. The PI3Kα kinase was purchased from Invitrogen. The substrate was PIP2 from Invitrogen. The kinase buffer contained 50 mM Hepes (pH 7.5), 3 mM MgCl2, 100 mM NaCl, 1 mM EGTA, 0.03% CHAPS and 2 mM DTT. […] The substrate solution contained 100 μM PIP2 and 50 μM ATP. The test compound was diluted to 10 mM in 100% DMSO and serially diluted three times into ten different concentrations in 100% DMSO. The compound diluted in 100% DMSO was diluted 25-fold in 1×kinase buffer. 2.5 μL of the diluted compound solution and 2.5 μL PI3Kα kinase solution were added to each well of a 384-well plate. The reaction was initiated by addition of 5 μL substrate solution to each well. […] The plate was then covered and the reaction was allowed to proceed for one hour at room temperature, followed by the addition of 10 μL Kinase-Glo™ reagent to each well to stop the reaction.
The percentage of inhibition was calculated as follows: Inhibition %=100−(max−sample RLU)/(max−min)*100
wherein sample RLU was the luminescence reading for a given compound concentration, min was the reading of DMSO control, and max was the reading of the enzyme-free control. The IC50 value was calculated with the XLfit program in Excel.

Chain of PI3Kα (P42336 whole entry): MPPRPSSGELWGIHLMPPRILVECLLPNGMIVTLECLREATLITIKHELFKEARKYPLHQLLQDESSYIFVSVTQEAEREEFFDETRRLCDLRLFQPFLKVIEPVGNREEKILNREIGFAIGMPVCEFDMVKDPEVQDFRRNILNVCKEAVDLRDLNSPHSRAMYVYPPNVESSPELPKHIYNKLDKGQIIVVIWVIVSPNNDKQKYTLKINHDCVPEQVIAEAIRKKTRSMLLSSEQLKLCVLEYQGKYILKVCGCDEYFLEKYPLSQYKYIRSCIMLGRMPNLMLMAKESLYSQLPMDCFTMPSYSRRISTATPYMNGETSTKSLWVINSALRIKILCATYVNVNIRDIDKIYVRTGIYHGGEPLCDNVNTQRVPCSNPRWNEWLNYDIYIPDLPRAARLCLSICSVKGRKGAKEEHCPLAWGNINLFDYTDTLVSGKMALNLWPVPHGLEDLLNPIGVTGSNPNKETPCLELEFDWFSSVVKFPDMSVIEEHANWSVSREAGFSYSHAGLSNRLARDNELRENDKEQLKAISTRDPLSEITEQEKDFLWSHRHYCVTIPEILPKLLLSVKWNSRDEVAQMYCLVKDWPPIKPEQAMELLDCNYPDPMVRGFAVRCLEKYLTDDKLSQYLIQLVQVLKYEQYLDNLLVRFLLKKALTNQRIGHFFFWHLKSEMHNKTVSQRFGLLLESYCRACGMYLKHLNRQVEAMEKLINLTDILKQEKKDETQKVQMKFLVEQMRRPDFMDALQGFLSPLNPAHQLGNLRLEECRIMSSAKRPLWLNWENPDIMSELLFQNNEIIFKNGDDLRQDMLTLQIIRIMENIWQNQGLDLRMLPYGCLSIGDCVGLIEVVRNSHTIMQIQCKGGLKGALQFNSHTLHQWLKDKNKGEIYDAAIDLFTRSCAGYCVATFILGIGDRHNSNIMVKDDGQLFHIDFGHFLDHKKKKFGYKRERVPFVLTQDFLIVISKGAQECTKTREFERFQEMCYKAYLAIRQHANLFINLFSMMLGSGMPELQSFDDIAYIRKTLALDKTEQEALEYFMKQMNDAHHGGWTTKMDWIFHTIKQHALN
Chain of PI3Kα (P27986 whole entry partner): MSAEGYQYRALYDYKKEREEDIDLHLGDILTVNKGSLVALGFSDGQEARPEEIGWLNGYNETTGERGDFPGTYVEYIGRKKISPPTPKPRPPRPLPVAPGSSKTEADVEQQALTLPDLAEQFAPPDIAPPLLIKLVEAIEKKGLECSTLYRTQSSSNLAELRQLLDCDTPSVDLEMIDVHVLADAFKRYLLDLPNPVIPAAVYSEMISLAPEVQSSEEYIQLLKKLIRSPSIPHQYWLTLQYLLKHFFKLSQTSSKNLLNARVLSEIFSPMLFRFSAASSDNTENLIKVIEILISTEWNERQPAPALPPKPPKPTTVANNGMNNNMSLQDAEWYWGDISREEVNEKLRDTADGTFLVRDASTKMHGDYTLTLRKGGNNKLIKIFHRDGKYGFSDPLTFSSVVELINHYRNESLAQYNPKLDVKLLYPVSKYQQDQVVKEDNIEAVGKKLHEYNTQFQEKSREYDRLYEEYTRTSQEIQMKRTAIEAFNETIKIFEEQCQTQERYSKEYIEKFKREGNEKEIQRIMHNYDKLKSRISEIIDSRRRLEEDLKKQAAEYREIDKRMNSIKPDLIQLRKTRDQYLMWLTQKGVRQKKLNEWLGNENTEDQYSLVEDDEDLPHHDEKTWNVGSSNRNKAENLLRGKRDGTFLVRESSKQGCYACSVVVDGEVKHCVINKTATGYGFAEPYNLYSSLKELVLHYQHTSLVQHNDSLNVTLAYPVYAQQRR

For the molecule `COc1ncc(-c2cc(O[C@H]3CC[C@H](OC)CC3)c3nc(N)nc(C)c3c2)cc1NS(=O)(=O)c1ccc(F)cc1F` (single isomer, unassigned) [Example 18-1, N-(5-(2-amino-8-((4-methoxycyclohexyl)oxy)-4-methylquinazolin-6-yl)-2-methoxypyridin-3-yl)-2,4-difluorobenzenesulfonamide], the IC50 in assay [1] (Homo sapiens, NCI-H460, 96 h) was 30 nM; at PI3Kα, 1.1 nM.

Consider `COc1ncc(-c2cc(O[C@H]3CC[C@H](OC)CC3)c3nc(N)nc(C)c3c2)cc1NS(=O)(=O)c1ccc(F)cc1F` (single isomer, unassigned) [Example 18-2, N-(5-(2-amino-8-((4-methoxycyclohexyl)oxy)-4-methylquinazolin-6-yl)-2-methoxypyridin-3-yl)-2,4-difluorobenzenesulfonamide], for which the IC50 came out at 57 nM in assay [1] (96 hours) and 0.8 nM at PI3Kα.

Turning to `COc1ncc(-c2cc(OC3CCOCC3)c3nc(N)nc(C)c3c2)cc1NS(=O)(=O)c1ccc(F)cc1Cl` [Example 2, N-(5-(2-amino-4-methyl-8-((tetrahydro-2H-pyran-4-yl)oxy)quinazolin-6-yl)-2-methoxypyridin-3-yl)-2-chloro-4-fluorobenzenesulfonamide], the IC50 in assay [1] (Homo sapiens, NCI-H460, 96 h) stood at 17 nM; on PI3Kα it was 0.72 nM.

As for `COc1ncc(-c2cc(OC3CCOCC3)c3nc(N)nc(C)c3c2)cc1NS(C)(=O)=O` [Example 5, N-(5-(2-amino-4-methyl-8-((tetrahydro-2H-pyran-4-yl)oxy)quinazolin-6-yl)-2-methoxypyridin-3-yl)methanesulfonamide], the IC50 in assay [1] (Homo sapiens, NCI-H460, 96 h) is 860 nM; at PI3Kα, 2.7 nM.

Turning to `COc1ncc(-c2cc(OC3CCOCC3)c3nc(N)nc(C)c3c2)cc1NS(=O)(=O)C1CC1` [Example 6, N-(5-(2-amino-4-methyl-8-((tetrahydro-2H-pyran-4-yl)oxy)quinazolin-6-yl)-2-methoxypyridin-3-yl)cyclopropanesulfonamide], the IC50 in assay [1] (Homo sapiens, NCI-H460, 96 h) amounted to 930 nM; on PI3Kα it was 2.3 nM.

As for `Cc1ncc(-c2cc(OC3CCOCC3)c3nc(N)nc(C)c3c2)cc1NS(=O)(=O)c1ccc(F)cc1F` [Example 7, N-(5-(2-amino-4-methyl-8-((tetrahydro-2H-pyran-4-yl)oxy)quinazolin-6-yl)-2-methylpyridin-3-yl)-2,4-difluorobenzenesulfonamide], the concentration for half-maximal inhibition (IC50) in assay [1] (Homo sapiens, NCI-H460, 96 h) came out at 2100 nM; against PI3Kα it was 1.1 nM.

With `Cc1nc(N)nc2c(OC3CCOCC3)cc(-c3cnc(Cl)c(NS(=O)(=O)c4ccc(F)cc4)c3)cc12` [Example 8, N-(5-(2-amino-4-methyl-8-((tetrahydro-2H-pyran-4-yl)oxy)quinazolin-6-yl)-2-chloropyridin-3-yl)-4-fluorobenzenesulfonamide], the IC50 in assay [1] (Homo sapiens, NCI-H460, 96 h) came to 1200 nM; against PI3Kα, 1 nM.

Consider `COc1ncc(-c2cc(O[C@@H]3CCOC3)c3nc(N)nc(C)c3c2)cc1NS(C)(=O)=O` [Example 10, (R)—N-(5-(2-amino-4-methyl-8-((tetrahydrofuran-3-yl)oxy)quinazolin-6-yl)-2-methoxypyridin-3-yl)methanesulfonamide], for which the IC50 in assay [1] (Homo sapiens, NCI-H460, 96 h) was determined as 2200 nM; on PI3Kα it was 3.8 nM.

Turning to `COc1ncc(-c2cc(O[C@H]3CCOC3)c3nc(N)nc(C)c3c2)cc1NS(=O)(=O)c1ccc(F)cc1F` [Example 11, (S)—N-(5-(2-amino-4-methyl-8-((tetrahydrofuran-3-yl)oxy)quinazolin-6-yl)-2-methoxypyridin-3-yl)-2,4-difluorobenzenesulfonamide], the IC50 in assay [1] (Homo sapiens, NCI-H460, 96 h) was 94 nM; against PI3Kα, 0.94 nM.

Take `COc1ncc(-c2cc(O[C@H]3CCOC3)c3nc(N)nc(C)c3c2)cc1NS(C)(=O)=O` [Example 12, (S)—N-(5-(2-amino-4-methyl-8-((tetrahydrofuran-3-yl)oxy)quinazolin-6-yl)-2-methoxypyridin-3-yl)methanesulfonamide]: the IC50 in assay [1] (Homo sapiens, NCI-H460, 96 h) was determined as 2300 nM; at PI3Kα, 4.5 nM.

For the molecule `COc1ncc(-c2cc(OCC3CCOCC3)c3nc(N)nc(C)c3c2)cc1NS(=O)(=O)c1ccc(F)cc1F` [Example 13, N-(5-(2-amino-4-methyl-8-((tetrahydro-2H-pyran-4-yl)methoxy)quinazolin-6-yl)-2-methoxypyridin-3-yl)-2,4-difluorobenzenesulfonamide], the IC50 in assay [1] (Homo sapiens, NCI-H460, 96 h) worked out at 21 nM; at PI3Kα it was 0.84 nM.

For the molecule `COc1ncc(-c2cc(OCC3CCOCC3)c3nc(N)nc(C)c3c2)cc1NS(C)(=O)=O` [Example 14, N-(5-(2-amino-4-methyl-8-((tetrahydro-2H-pyran-4-yl)methoxy)quinazolin-6-yl)-2-methoxypyridin-3-yl)methanesulfonamide], the IC50 turned out to be 2000 nM in assay [1] (Homo sapiens, NCI-H460, 96 h) and 3.3 nM against PI3Kα.

Turning to `COc1ncc(-c2cc(OC3CCN(C)CC3)c3nc(N)nc(C)c3c2)cc1NS(=O)(=O)c1ccc(F)cc1F` [Example 15, N-(5-(2-amino-4-methyl-8-((1-methylpiperidin-4-yl)oxy)quinazolin-6-yl)-2-methoxypyridin-3-yl)-2,4-difluorobenzenesulfonamide], the IC50 turned out to be 660 nM in assay [1] (Homo sapiens, NCI-H460, 96 h) and 5.5 nM against PI3Kα.

With `COc1ncc(-c2cc(OCCN3CCOCC3)c3nc(N)nc(C)c3c2)cc1NS(=O)(=O)c1ccc(F)cc1F` [Example 16, N-(5-(2-amino-4-methyl-8-(2-morpholinoethoxy)quinazolin-6-yl)-2-methoxypyridin-3-yl)-2,4-difluorobenzenesulfonamide], the IC50 came to 1100 nM in assay [1] (Homo sapiens, NCI-H460, 96 h) and 4.1 nM at PI3Kα.

As to `COc1ncc(-c2cc(OC3CCC(F)(F)CC3)c3nc(N)nc(C)c3c2)cc1NS(=O)(=O)c1ccc(F)cc1F` [Example 17, N-(5-(2-amino-8-((4,4-difluorocyclohexyl)oxy)-4-methylquinazolin-6-yl)-2-methoxypyridin-3-yl)-2,4-difluorobenzenesulfonamide], the IC50 amounted to 83 nM in assay [1] (Homo sapiens, NCI-H460, 96 h) and 2.3 nM against PI3Kα.

For the molecule `COc1ncc(-c2cc(OC3CCCCC3)c3nc(N)nc(C)c3c2)cc1NS(=O)(=O)c1ccc(F)cc1F` [Example 22, N-(5-(2-amino-8-(cyclohexyloxy)-4-methylquinazolin-6-yl)-2-methoxypyridin-3-yl)-2,4-difluorobenzenesulfonamide], the IC50 amounted to 96 nM in assay [1] (Homo sapiens, NCI-H460, 96 h) and 0.6 nM on PI3Kα.

On to `COCCOc1cc(-c2cnc(OC)c(NS(=O)(=O)c3ccc(F)cc3F)c2)cc2c(C)nc(N)nc12` [Example 25, N-(5-(2-amino-8-(2-methoxyethoxy)-4-methylquinazolin-6-yl)-2-methoxypyridin-3-yl)-2,4-difluorobenzenesulfonamide], for which the IC50 in assay [1] (Homo sapiens, NCI-H460, 96 h) turned out to be 200 nM; on PI3Kα, 1.6 nM.

In the case of `COc1ncc(-c2cc(OC(C)C)c3nc(N)nc(C)c3c2)cc1NS(=O)(=O)c1ccc(F)cc1F` [Example 26, N-(5-(2-amino-8-isopropoxy-4-methylquinazolin-6-yl)-2-methoxypyridin-3-yl)-2,4-difluorobenzenesulfonamide], the IC50 in assay [1] (Homo sapiens, NCI-H460, 96 h) was 140 nM; on PI3Kα it was 0.79 nM.

As for `COc1ncc(-c2cc(OCC3CC3)c3nc(N)nc(C)c3c2)cc1NS(=O)(=O)c1ccc(F)cc1F` [Example 27, N-(5-(2-amino-8-(cyclopropylmethoxy)-4-methylquinazolin-6-yl)-2-methoxypyridin-3-yl)-2,4-difluorobenzenesulfonamide], the IC50 in assay [1] (Homo sapiens, NCI-H460, 96 h) was determined as 200 nM; at PI3Kα, 1.7 nM.

`COc1ncc(-c2cc(OC)c3nc(N)nc(C)c3c2)cc1NS(=O)(=O)c1ccc(F)cc1F` [Example 28, N-(5-(2-amino-8-methoxy-4-methylquinazolin-6-yl)-2-methoxypyridin-3-yl)-2,4-difluorobenzenesulfonamide]: the IC50 was 280 nM in assay [1] (Homo sapiens, NCI-H460, 96 h) and 1.2 nM against PI3Kα.

For `CNc1nc(C)c2cc(-c3cnc(OC)c(NS(=O)(=O)c4ccc(F)cc4F)c3)cc(OC3CCOCC3)c2n1` [Example 29, N-(2-methoxy-5-(4-methyl-2-(methylamino)-8-((tetrahydro-2H-pyran-4-yl)oxy)quinazolin-6-yl)pyridin-3-yl)-2,4-difluorobenzenesulfonamide], the IC50 in assay [1] (Homo sapiens, NCI-H460, 96 h) is 59 nM; against PI3Kα it was 1.1 nM.

On to `CCNc1nc(C)c2cc(-c3cnc(OC)c(NS(=O)(=O)c4ccc(F)cc4F)c3)cc(OC3CCOCC3)c2n1` [Example 30, N-(5-(2-(ethylamino)-4-methyl-8-((tetrahydro-2H-pyran-4-yl)oxy)quinazolin-6-yl)-2-methoxypyridin-3-yl)-2,4-difluorobenzenesulfonamide], for which the concentration for half-maximal inhibition (IC50) in assay [1] (Homo sapiens, NCI-H460, 96 h) was 240 nM; against PI3Kα, 1.3 nM.
